# Laboratory results from patent US12338243B2, “P2X7 modulators” (JANSSEN PHARMACEUTICA NV, priority 2014, dated 2025).
# Assays:
# rat P2X7 = target: T1, rat P2X7 (Rattus norvegicus, UniProt Q64663); assay: Ca2+ flux (FLIPR) in 1321N1 cells expressing recombinant rat P2X7 channel; conditions: FLIPR (rat) IC50 (μM), 250 μM BzATP
# T1 sequence (Q64663 1-595): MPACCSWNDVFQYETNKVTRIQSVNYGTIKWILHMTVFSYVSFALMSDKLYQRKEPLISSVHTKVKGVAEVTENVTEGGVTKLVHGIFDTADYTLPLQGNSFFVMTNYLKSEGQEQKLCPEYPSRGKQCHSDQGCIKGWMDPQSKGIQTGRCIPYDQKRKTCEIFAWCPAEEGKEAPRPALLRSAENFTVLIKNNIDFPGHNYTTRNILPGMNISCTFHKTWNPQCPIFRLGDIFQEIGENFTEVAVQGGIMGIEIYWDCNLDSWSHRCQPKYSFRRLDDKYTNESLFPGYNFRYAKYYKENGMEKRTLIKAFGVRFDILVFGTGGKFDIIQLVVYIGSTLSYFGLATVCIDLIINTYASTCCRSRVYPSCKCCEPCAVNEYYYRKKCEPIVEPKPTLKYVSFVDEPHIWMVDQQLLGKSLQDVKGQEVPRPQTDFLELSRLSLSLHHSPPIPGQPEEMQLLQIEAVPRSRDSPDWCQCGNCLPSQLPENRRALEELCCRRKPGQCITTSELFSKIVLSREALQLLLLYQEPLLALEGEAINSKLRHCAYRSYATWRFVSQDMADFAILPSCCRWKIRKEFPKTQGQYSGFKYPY
# Protocol: P2X7 Antagonism in Recombinant Human P2X7 Cells or Recombinant Rat P2X7 Cells: (a) Ca^2+ Flux and (b) Radioligand Binding
# (a) Ca^2+ flux: 1321N1 cells expressing the recombinant human or rat P2X7 channel was cultured in HyQ DME/(HyClone/Dulbecco's Modified Eagle Medium) high glucose supplemented with 10% Fetal Bovine Serum (FBS) and appropriate selection marker. Cells were seeded at a density of 25000 cells/well (96-well clear bottom black walled plates) in 100 μl volume/well. On the day of the experiment, cell plates were washed with assay buffer, containing (in mM): 130 NaCl, 2 KCl, 1 CaCl2), 1 MgCl2, 10 HEPES, 5 glucose; pH 7.40 and 300 mOs. After the wash, cells were loaded with the Calcium-4 dye (Molecular Device) and incubated in the dark for 60 minutes. Test compounds were prepared at 250× the test concentration in neat DMSO. Intermediate 96-well compound plates were prepared by transferring 1.2 μL of the compound into 300 μL of assay buffer. A further 3× dilution occurred when transferring 50 μL/well of the compound plate to 100 μL/well in the cell plate. Cells were incubated with test compounds and dye for 30 minutes. […] The fluorescence change was measured 180 seconds after adding the agonist.
# [1] = Biodistribution studies of radiotracer in healthy female Wistar rats; format: in vivo; conditions: for % ID blood: blood mass assumed 7% of body mass; for SUV blood / % ID carcass / % ID cerebellum / SUV cerebellum / % ID cerebrum / SUV cortex / % ID heart / SUV hippocampus / % ID intestines / % ID kidneys / % ID liver / % ID lungs / SUV rest of cerebrum / % ID spleen + pancreas / % ID stomach / SUV striatum / % ID urine / SUV whole cerebrum: mean ± SD, n = 3; for % ID bone: calculated to estimated total bone tissue (% ID/g bone * body mass* 0.12)
# Protocol: HPLC analysis was performed on a LaChrom Elite HPLC system (Hitachi, Armstadt, Germany) connected to a UV spectrometer set at 220 nm. For the analysis of radiolabeled compounds, the HPLC eluate, after passage through the UV detector, was led over a shielded 3-inch NaI(Tl) scintillation detector connected to a multichannel analyser (Gabi box, Raytest, Straubenhardt, Germany). The output signal was recorded and analysed using a GINA Star data acquisition system (Raytest, Straubenhardt, Germany). Radioactivity in samples of biodistribution studies, cell uptake experiments and radiometabolite analysis was quantified using an automated gamma counter equipped with a 3-inch NaI(Tl) well crystal coupled to a multichannel analyser (Wallac 2480 Wizard, Wallac, Turku, Finland). Results were corrected for background radiation, physical decay and counter dead time.
# Animals were housed in individually ventilated cages in a thermoregulated (˜22° C.), humidity-controlled facility under a 12 h/12 h light/dark cycle with access to food and water ad libitum. All animal experiments were conducted according to the Belgian code of practice for the care and use of animals, after approval from the KU Leuven University Ethics Committee for Animals.
# The biodistribution studies were performed in healthy female Wistar rats (body weight, 185-220 g) at 2, 30 and 60 min after tracer injection (n=3/time point). […] The animals were sacrificed by decapitation at the indicated time points. Blood and major organs were collected in tared tubes and weighed. The radioactivity in the dissected organs and blood was counted using an automated gamma counter. For calculation of total blood radioactivity, blood mass was assumed to be 7% of the body mass.
structure (smiles),measurement,setting,value
"CC1c2nnc(-c3ccccn3)n2CCN1C(=O)c1cccc(Cl)c1Cl (stereo not drawn) [Example 1, (2,3-dichlorophenyl)(8-methyl-3-(pyridin-2-yl)-5,6-dihydro-[1,2,4]triazolo[4,3-a]pyrazin-7(8H)-yl)methanone]",IC50,rat P2X7,1.21 µM
"C[C@H]1Cn2c(nnc2-c2ccc(F)cc2F)CN1C(=O)c1cccc(Cl)c1Cl [Example 50, (S)-(2,3-dichlorophenyl)(3-(2,4-difluorophenyl)-6-methyl-5,6-dihydro-[1,2,4]triazolo[4,3-a]pyrazin-7(8H)-yl)methanone]",IC50,rat P2X7,1.68 µM
C[C@H]1Cn2c(nnc2-c2ncc(F)cn2)CN1C(=O)c1cccc(C(F)(F)F)c1Cl [Example 74],IC50,rat P2X7,0.0101 µM
"C[C@H]1Cn2c(nnc2-c2cc([18F])ccn2)CN1C(=O)c1cccc(Cl)c1Cl [[^18F]68, (S)-(2,3-dichlorophenyl)(3-(4-[^18F]fluoropyridin-2-yl)-6-methyl-5,6-dihydro-[1,2,4]triazolo[4,3-a]pyrazin-7(8H)-yl)methanone]",% ID blood,[1]; 2 min after tracer injection,6.8 ± 0.6 % ID
same,SUV blood,[1]; 2 min after tracer injection,0.97 ± 0.08
same,% ID blood,[1]; 30 min after tracer injection,4.3 ± 0.3 % ID
same,SUV blood,[1]; 30 min after tracer injection,0.61 ± 0.04
same,% ID blood,[1]; 60 min after tracer injection,2.0 ± 0.5 % ID
same,SUV blood,[1]; 60 min after tracer injection,0.29 ± 0.07
same,% ID bone,[1]; 2 min,8.8 ± 0.8 % ID
same,% ID bone,[1]; 30 min,44.5 ± 3.8 % ID
same,% ID bone,[1]; 60 min,64.5 ± 5.9 % ID
same,% ID carcass,[1]; 2 min after tracer injection,40.8 ± 0.8 % ID
same,% ID carcass,[1]; 30 min after tracer injection,56.6 ± 2.8 % ID
same,% ID carcass,[1]; 60 min after tracer injection,60.4 ± 2.3 % ID
same,% ID cerebellum,[1]; 2 min after tracer injection,0.1 ± 0.0 % ID
same,SUV cerebellum,[1]; 2 min after tracer injection,1.21 ± 0.22
same,% ID cerebellum,[1]; 30 min after tracer injection,0.0 ± 0.0 % ID
same,SUV cerebellum,[1]; 30 min after tracer injection,0.33 ± 0.07
same,% ID cerebellum,[1]; 60 min after tracer injection,0.0 ± 0.0 % ID
same,SUV cerebellum,[1]; 60 min after tracer injection,0.38 ± 0.08
same,% ID cerebrum,[1]; 2 min after tracer injection,0.6 ± 0.0 % ID
same,% ID cerebrum,[1]; 30 min after tracer injection,0.1 ± 0.0 % ID
same,% ID cerebrum,[1]; 60 min after tracer injection,0.1 ± 0.0 % ID
same,SUV cortex,[1]; 2 min after tracer injection,1.27 ± 0.13
same,SUV cortex,[1]; 30 min after tracer injection,0.94 ± 0.29
same,SUV cortex,[1]; 60 min after tracer injection,0.69 ± 0.17
same,% ID heart,[1]; 2 min after tracer injection,0.9 ± 0.1 % ID
same,% ID heart,[1]; 30 min after tracer injection,0.2 ± 0.0 % ID
same,% ID heart,[1]; 60 min after tracer injection,0.1 ± 0.0 % ID
same,SUV hippocampus,[1]; 2 min after tracer injection,1.11 ± 0.10
same,SUV hippocampus,[1]; 30 min after tracer injection,0.23 ± 0.04
same,SUV hippocampus,[1]; 60 min after tracer injection,0.19 ± 0.03
same,% ID intestines,[1]; 2 min after tracer injection,10.6 ± 2.1 % ID
same,% ID intestines,[1]; 30 min after tracer injection,20.9 ± 6.0 % ID
same,% ID intestines,[1]; 60 min after tracer injection,11.2 ± 0.6 % ID
same,% ID kidneys,[1]; 2 min after tracer injection,3.3 ± 0.5 % ID
same,% ID kidneys,[1]; 30 min after tracer injection,1.1 ± 0.2 % ID
same,% ID kidneys,[1]; 60 min after tracer injection,0.9 ± 0.1 % ID
same,% ID liver,[1]; 2 min after tracer injection,34.6 ± 2.4 % ID
same,% ID liver,[1]; 30 min after tracer injection,7.5 ± 0.6 % ID
same,% ID liver,[1]; 60 min after tracer injection,3.61 ± 0.3 % ID
same,% ID lungs,[1]; 2 min after tracer injection,1.6 ± 0.1 % ID
same,% ID lungs,[1]; 30 min after tracer injection,0.7 ± 0.1 % ID
same,% ID lungs,[1]; 60 min after tracer injection,0.6 ± 0.2 % ID
same,SUV rest of cerebrum,[1]; 2 min after tracer injection,1.20 ± 0.11
same,SUV rest of cerebrum,[1]; 30 min after tracer injection,0.31 ± 0.06
same,SUV rest of cerebrum,[1]; 60 min after tracer injection,0.25 ± 0.04
same,% ID spleen + pancreas,[1]; 2 min after tracer injection,1.3 ± 0.2 % ID
same,% ID spleen + pancreas,[1]; 30 min after tracer injection,0.3 ± 0.1 % ID
same,% ID spleen + pancreas,[1]; 60 min after tracer injection,0.2 ± 0.0 % ID
same,% ID stomach,[1]; 2 min after tracer injection,1.5 ± 0.5 % ID
same,% ID stomach,[1]; 30 min after tracer injection,1.6 ± 0.9 % ID
same,% ID stomach,[1]; 60 min after tracer injection,10.7 ± 3.3 % ID
same,SUV striatum,[1]; 2 min after tracer injection,1.19 ± 0.13
same,SUV striatum,[1]; 30 min after tracer injection,0.24 ± 0.05
same,SUV striatum,[1]; 60 min after tracer injection,0.19 ± 0.03
same,% ID urine,[1]; 2 min after tracer injection,0.1 ± 0.0 % ID
same,% ID urine,[1]; 30 min after tracer injection,8.4 ± 1.8 % ID
same,% ID urine,[1]; 60 min after tracer injection,8.4 ± 1.8 % ID
same,SUV whole cerebrum,[1]; 2 min after tracer injection,1.20 ± 0.11
same,SUV whole cerebrum,[1]; 30 min after tracer injection,0.31 ± 0.06
same,SUV whole cerebrum,[1]; 60 min after tracer injection,0.25 ± 0.04
